Reference: US20250188057A1, “NON-AROMATIC CYCLIC-PYRIMIDINE ANALOGS AS GLUCOSYLCERAMIDE SYNTHASE INHIBITORS” (Merck Sharp & Dohme LLC, priority 2022, published 2025)

What follows are compounds tested against glucosylceramide synthase (GCS) (Homo sapiens (Human), UniProt Q16739) (assay: UDP-Glo glucosylceramide synthase biochemical assay). Settings: endogenous GCS in Golgi preparations isolated from human A375 malignant melanoma skin cells; UDP detection by luminescence.
Excerpt: A UDP-Glo™ glucosylceramide synthase biochemical assay was utilized to evaluate the effect of test compounds on the activity of endogenous levels of GCS enzyme contained within Golgi preparations isolated from human A375 malignant melanoma skin cells. The UDP-Glo™ glucosylceramide synthase assay uses UDP-Glucose as a nucleotide-glycosyl donor and ceramide as substrate acceptor molecules. In the reaction, glucosylceramide synthase (GCS) transfers glucose from UDP-Glucose to ceramide. Glucosylceramide and UDP are released as products.
Using Promega's UDP-Glo™ Glycosyltransferase assay kit (Promega Corporation, Madison, WI, USA (Promega)), GCS activity was indirectly measured by detecting the amount of UDP produced. An aliquot of GCS enzyme (1.5 μg crude golgi preparation, total protein) and titrated test compound were aliquoted to each well and incubated for 30 minutes at room temperature. […] An equivalent volume of substrate mixture was then added to each well. Following a 20 h incubation at room temperature to allow for GCS turnover of substrate, an equal volume of UDP detection reagent (Promega) was added to each well and incubated for an additional 75 minutes at room temperature to simultaneously convert the accumulated UDP product into ATP and generate light in a luciferase reaction. The generated light was detected using a luminometer. […] luminescence values (RLUs) were normalized to mean “min” and “max” effects, as determined on each plate. “Min” was defined as the mean of the values of the wells treated with vehicle (DMSO) and which represent 0% inhibition; “max” was defined as the mean of the values of the wells treated with a reference inhibitor and which represent the 100% effect. Values for % Emax and EC50 were determined by best-fitting the normalized data to a curve in Activity Base along a four-parameter logistic nonlinear regression (4PL) model (based on the Levenberg-Marquardt algorithm and defined by the equation below): […]
where: n is 4PMin (bottom of the curve); m is 4PMax (top of the curve); i is IP (inflection point of curve); and p is slope. See Levenberg, K., “A Method for the Solution of Certain Problems in Least Squares”, Quart. Appl. Math. 2, (1944), pp 164-168 and Marquardt, D., “An Algorithm for Least Squares Estimation on Nonlinear Parameters”, SIAM J. Appl. Math 11, (1963) pp 431-441.

Sequence of glucosylceramide synthase (GCS) (Q16739 whole entry): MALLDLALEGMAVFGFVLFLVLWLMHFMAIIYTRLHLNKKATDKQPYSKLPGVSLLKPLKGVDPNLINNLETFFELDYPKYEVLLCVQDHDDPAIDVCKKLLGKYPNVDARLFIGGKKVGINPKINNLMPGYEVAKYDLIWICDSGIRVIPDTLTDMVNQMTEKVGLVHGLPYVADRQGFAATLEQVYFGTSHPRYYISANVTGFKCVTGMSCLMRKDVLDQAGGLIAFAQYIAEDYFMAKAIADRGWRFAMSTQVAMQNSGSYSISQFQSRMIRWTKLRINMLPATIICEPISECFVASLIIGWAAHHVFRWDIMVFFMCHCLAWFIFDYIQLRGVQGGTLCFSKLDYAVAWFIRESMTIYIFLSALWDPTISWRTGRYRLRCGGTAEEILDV

IC50 [µM] | Structure (SMILES)
0.584 | COC[C@@H](c1ccc(C(F)(F)F)cc1)N1CCN(c2nc(C3CC3)ncc2C#N)C[C@@H]1C [Compound 81, 2-cyclopropyl-4-((S)-4-((R)-2-methoxy-1-(4-(trifluoromethyl)phenyl)ethyl)-3-methylpiperazin-1-yl)pyrimidine-5-carbonitrile]
0.971 | Cc1nc2c(s1)C(Oc1nc(C3CC3)ncc1C#N)CCC2 (centres unmarked) [Compound 126, 2-cyclopropyl-4-((2-methyl-4,5,6,7-tetrahydrobenzo[d]thiazol-7-yl)oxy)pyrimidine-5-carbonitrile]
1.4 | N#Cc1cnc(C2CC2)nc1OC[C@H]1CCN(c2cccc3cnccc23)C1 [Compound 33, (S)-2-cyclopropyl-4-((1-(isoquinolin-5-yl)pyrrolidin-3-yl)methoxy)pyrimidine-5-carbonitrile]
0.357 | N#Cc1cnc(C2CC2)nc1OC[C@H]1CCN(c2cccc(-n3cccn3)c2)C1 [Compound 16, (S)-4-((1-(3-(1H-pyrazol-1-yl)phenyl)pyrrolidin-3-yl)methoxy)-2-cyclopropylpyrimidine-5-carbonitrile]
0.029 | Cc1nc(-c2ccc(N3CC[C@H](COc4nc(C5CC5)ncc4C#N)C3)cc2)co1 [Compound 40, (S)-2-cyclopropyl-4-((1-(4-(2-methyloxazol-4-yl)phenyl)pyrrolidin-3-yl)methoxy)pyrimidine-5-carbonitrile]
0.889 | N#Cc1cnc(C2CC2)nc1OC[C@H]1CCN(c2cnc(-c3ccccc3)o2)C1 [Compound 8, (S)-2-cyclopropyl-4-((1-(2-phenyloxazol-5-yl)pyrrolidin-3-yl)methoxy)pyrimidine-5-carbonitrile]
4.67 | N#Cc1cnc(C2CC2)nc1OC[C@H]1CCN(c2ncccc2C(F)F)C1 [Compound 26, (S)-2-cyclopropyl-4-((1-(3-(difluoromethyl)pyridin-2-yl)pyrrolidin-3-yl)methoxy)pyrimidine-5-carbonitrile]
0.08 | Cc1nnc(-c2ccc(N3CC[C@H](COc4nc(C5CC5)ncc4C#N)C3)cc2)s1 [Compound 13, (S)-2-cyclopropyl-4-((1-(4-(5-methyl-1,3,4-thiadiazol-2-yl)phenyl)pyrrolidin-3-yl)methoxy)pyrimidine-5-carbonitrile]
0.546 | N#Cc1cnc(C2CC2)nc1N1CCOCC1c1ccccc1F (centres unmarked) [Compound 68, 2-cyclopropyl-4-(3-(2-fluorophenyl)morpholino)pyrimidine-5-carbonitrile]
0.379 | N#Cc1cnc(C2CC2)nc1NC1CCc2ccc(O)cc21 (centres unmarked) [Compound 91, 2-cyclopropyl-4-((6-hydroxy-2,3-dihydro-1H-inden-1-yl)amino)pyrimidine-5-carbonitrile]
0.762 | CC1(COc2nc(C3CC3)ncc2C#N)CCN(c2ncc(C(F)(F)F)cn2)C1 (centres unmarked) [Compound 52, 2-cyclopropyl-4-((3-methyl-1-(5-(trifluoromethyl)pyrimidin-2-yl)pyrrolidin-3-yl)methoxy)pyrimidine-5-carbonitrile]
1.44 | OCc1cnc(C2CC2)nc1OC1CCN(c2ccc(C(F)(F)F)nc2)CC1 [Compound 6, (2-cyclopropyl-4-((1-(6-(trifluoromethyl)pyridin-3-yl)piperidin-4-yl)oxy)pyrimidin-5-yl)methanol]
0.156 | N#Cc1cnc(C2CC2)nc1OCC1CCN(c2ccc(Cl)cc2)C1 (centres unmarked) [Compound 58, 4-((1-(4-chlorophenyl)pyrrolidin-3-yl)methoxy)-2-cyclopropylpyrimidine-5-carbonitrile]
2.32 | OCc1cnc(C2CC2)nc1OC[C@@H]1CN(c2ccc(C(F)(F)F)nc2)CCO1 [Compound 3, (S)-(2-cyclopropyl-4-((4-(6-(trifluoromethyl)pyridin-3-y)morpholin-2-yl)methoxy)pyrimidin-5-yl)methanol]
3.95 | N#Cc1cnc(C2CC2)nc1OC1CN(Cc2ccc(F)cc2)C1 [Compound 60, 2-cyclopropyl-4-((1-(4-fluorobenzyl)azetidin-3-yl)oxy)pyrimidine-5-carbonitrile]
0.023 | N#Cc1cnc(C2CC2)nc1OC1CCc2ccc(C(F)(F)F)cc21 (centres unmarked) [Compound 98, 2-cyclopropyl-4-((6-(trifluoromethyl)-2,3-dihydro-1H-inden-1-yl)oxy)pyrimidine-5-carbonitrile]

Further lines, the compound ahead of its results:

Structure (SMILES) | IC50 [µM]
OCc1c(Cl)nc(C2CC2)nc1N1Cc2nc(Br)sc2C1 [Compound 111, (4-(2-bromo-4,6-dihydro-5H-pyrrolo[3,4-d]thiazol-5-yl)-6-chloro-2-cyclopropylpyrimidin-5-yl)methanol] | 3.26
N#Cc1cnc(C2CC2)nc1OCC12CC(COCc3ccccc3)(CO1)C2 [Compound 103, 4-((4-((benzyloxy)methyl)-2-oxabicyclo[2.1.1]hexan-1-yl)methoxy)-2-cyclopropylpyrimidine-5-carbonitrile] | 2.08
N#Cc1cnc(C2CC2)nc1NC1CCN(Cc2ccccc2)C1c1ccccc1 (centres unmarked) [Compound 82, 4-((1-benzyl-2-phenylpyrrolidin-3-yl)amino)-2-cyclopropylpyrimidine-5-carbonitrile] | 0.77
N#Cc1cnc(C2CC2)nc1OC[C@H]1CCN(c2ccc(-n3ccnc3)cc2)C1 [Compound 31, (S)-4-((1-(4-(1H-imidazol-1-yl)phenyl)pyrrolidin-3-yl)methoxy)-2-cyclopropylpyrimidine-5-carbonitrile] | 0.028
N#Cc1cnc(C2CC2)nc1NC(c1ccccc1)C1(N2CCCCC2)CCC1 (centres unmarked) [Compound 84, 2-cyclopropyl-4-((phenyl(1-(piperidin-1-yl)cyclobutyl)methyl)amino)pyrimidine-5-carbonitrile] | 1.24
N#Cc1cnc(C2CC2)nc1OC[C@H]1CCN(C2CCC(F)(F)CC2)C1 [Compound 108, (S)-2-cyclopropyl-4-((1-(4,4-difluorocyclohexyl)pyrrolidin-3-yl)methoxy)pyrimidine-5-carbonitrile] | 3.97
N#Cc1cnc(C2CC2)nc1OC[C@H]1CCN(c2csc3c(Cl)ncnc23)C1 [Compound 39, (S)-4-((1-(4-chlorothieno[3,2-d]pyrimidin-7-yl)pyrrolidin-3-yl)methoxy)-2-cyclopropylpyrimidine-5-carbonitrile] | 3.99
N#Cc1cnc(C2CC2)nc1NC1CN(C(c2ccccc2)c2ccccc2)C1 [Compound 92, 4-((1-benzhydrylazetidin-3-yl)amino)-2-cyclopropylpyrimidine-5-carbonitrile] | 2.9
OCc1c(Cl)nc(C2CC2)nc1N1Cc2nc(-c3ccccc3)oc2C1 [Compound 112, (4-chloro-2-cyclopropyl-6-(2-phenyl-4,6-dihydro-5H-pyrrolo[3,4-d]oxazol-5-yl)pyrimidin-5-yl)methanol] | 2.33
N#Cc1ccc(N2CC[C@H](COc3nc(C4CC4)ncc3C#N)C2)cc1F [Compound 35, (S)-4-((1-(4-cyano-3-fluorophenyl)pyrrolidin-3-yl)methoxy)-2-cyclopropylpyrimidine-5-carbonitirle] | 0.458
OCc1cnc(C2CC2)nc1OC[C@H]1CN(c2ccc(C(F)(F)F)nc2)CCO1 [Compound 4, (R)-(2-cyclopropyl-4-((4-(6-(trifluoromethyl)pyridin-3-yl)morpholin-2-yl)methoxy)pyrimidin-5-yl)methanol] | 1.38
CC(C)c1nc(-c2cccnc2N2CCN(c3nc(C4CC4)ncc3C#N)CC2)no1 [Compound 93, 2-cyclopropyl-4-(4-(3-(5-isopropyl-1,2,4-oxadiazol-3-yl)pyridin-2-yl)piperazin-1-yl)pyrimidine-5-carbonitrile] | 0.048
CCNC(=O)[C@]12CN(c3nc(C4CC4)ncc3C#N)C[C@H]1C(Oc1ccccc1)=NO2 [Compound 77, (3aR)-5-(5-cyano-2-cyclopropylpyrimidin-4-yl)-N-ethyl-3-phenoxy-3a,4,5,6-tetrahydro-6aH-pyrrolo[3,4-b]isoxazole-6a-carboxamide] | 0.655
Cc1nc2c(s1)CCCC2Nc1nc(C2CC2)nc(C)c1C#N (centres unmarked) [Compound 124, 2-cyclopropyl-4-methyl-6-((2-methyl-4,5,6,7-tetrahydrobenzo[d]thiazol-4-yl)amino)pyrimidine-5-carbonitrile] | 0.422
N#Cc1cnc(C2CC2)nc1NC[C@H]1CCN(c2ccc(-n3cccn3)nc2)C1 [Compound 48, (R)-4-(((1-(6-(1H-pyrazol-1-yl)pyridin-3-yl)pyrrolidin-3-yl)methyl)amino)-2-cyclopropylpyimidine-5-carbonitrile] | 0.969
C=Cc1cc(N2CC(c3nc4ccccc4n3C)C2)nc(C)n1 [Compound 122, 1-methyl-2-(1-(2-methyl-6-vinylpyrimidin-4-yl)azetidin-3-yl)-1H-benzo[d]imidazole] | 3.43
